# Laboratory results taken from patent publication US11162959B2, “Time-resolved fluorescent immunochromatographic test strip for detecting vancomycin as well as preparation method and application thereof” (BEIJING DIAGREAT BIOTECHNOLOGIES CO., LTD., priority 2019, dated 2021).
# Test system: vancomycin monoclonal antibody
# Assay: Cross-reaction rate measurement of the test strip of Embodiment 1 (interference testing in human serum containing 20 μg/mL vancomycin)
# Assay type: binding, Balb/c mouse
# Conditions: test concentration 20 μg/mL; human serum sample
# Description: 20 ul of sample is accurately pipetted into 180 ul of sample diluent and mixed fully.
# 80 uL of sample solution to be tested is accurately pipetted into a test strip loading well with a micropipette, and reaction is carried out at 20° C. for 15 min. The test strip is inserted into a load carrier of a fluorescence detector, an item to be tested is selected by touching a display screen, a “Detection Start” button is pressed, the fluorescence detector automatically scans the test strip, and a test result is read through the display screen of an instrument or printed.
# After the test is completed, the instrument obtains the ratio of the time-resolved fluorescent intensity of the detection area on the test strip to the time-resolved fluorescent intensity of the quality control area, and calculates the content of vancomycin in the sample to be tested according to the following formula. Y=(A−D)/[1+(x/C)^B]+D
# Several vancomycin analogs and common drugs are selected for interference testing.
row,SMILES,Cross reaction rate [%]
1,CN[C@H](CC(C)C)C(=O)N[C@H]1C(=O)N[C@@H](CC(N)=O)C(=O)N[C@H]2C(=O)N[C@H]3C(=O)N[C@H](C(=O)N[C@H](C(=O)O)c4cc(O)cc(O)c4-c4cc3ccc4O)[C@H](O)c3ccc(c(Cl)c3)Oc3cc2cc(c3O[C@@H]2OC(CO)[C@@H](O)[C@H](O)[C@H]2O[C@H]2C[C@](C)(N)[C@H](O)[C@H](C)O2)Oc2ccc(cc2Cl)[C@H]1O.Cl (stereo partly drawn) [Vancomycin],100

# Same assay, conditions: test concentration 100 μg/mL; added to human serum with vancomycin 20 μg/mL
row,SMILES,Cross reaction rate [%]
1,CC(C)C[C@@H](N)C(=O)N[C@H]1C(=O)N[C@@H](CC(N)=O)C(=O)N[C@H]2C(=O)N[C@H]3C(=O)N[C@H](C(=O)N[C@H](C(=O)O)c4cc(O)cc(O)c4-c4cc3ccc4O)[C@H](O)c3ccc(c(Cl)c3)Oc3cc2cc(c3O[C@@H]2O[C@H](CO)[C@@H](O)[C@H](O)[C@H]2O[C@H]2C[C@](C)(N)[C@H](O)[C@H](C)O2)Oc2ccc(cc2Cl)[C@H]1O [Norvancomycin],<1

# Same assay, conditions: test concentration 1,000 μg/mL; added to human serum with vancomycin 20 μg/mL
row,SMILES,Cross reaction rate [%]
1,CC(=O)Oc1ccccc1C(=O)O [Aspirin],<0.001
2,NC(=O)N1c2ccccc2C=Cc2ccccc21 [Carbamazepine],<0.001
3,C[C@H]1O[C@@H](O[C@H]2[C@@H](O)C[C@H](O[C@H]3[C@@H](O)C[C@H](O[C@H]4CC[C@@]5(C)[C@H](CC[C@@H]6[C@@H]5C[C@@H](O)[C@]5(C)[C@@H](C7=CC(=O)OC7)CC[C@]65O)C4)O[C@@H]3C)O[C@@H]2C)C[C@H](O)[C@@H]1O [Digoxin],<0.001
4,O=C1NC(=O)C(c2ccccc2)(c2ccccc2)N1 [Phenytoin],<0.001
5,O=C(O)c1ccccc1O [Salicylic acid],<0.001
6,Cn1c(=O)c2[nH]cnc2n(C)c1=O [Theophylline],<0.001
7,CCCC(CCC)C(=O)O [Valproic acid],<0.001
